Measured values reported in US5922748A, “Indole derivatives as 5-HT agonists” (Glaxo Wellcome Inc., priority 1994, dated 1999).
Read-outs that look alike come from different tables or passages of the source.

How the values were obtained:
[1] = molecular target: T1, "5-HT1 -like" receptor mediating smooth muscle contraction (Oryctolagus cuniculus, UniProt P49144); test: Rabbit Saphenous Vein Assay (contraction of isolated ring segments); format: cell-based, male New Zealand White Rabbits; settings: antagonism, given where compounds were found to be antagonists
T1 construct: Right and left lateral saphenous veins were obtained from male New Zealand White Rabbits; from tissue; host or cells: rabbit lateral saphenous vein ring segments

[2] = molecular target: T1, "5-HT1 -like" receptor mediating smooth muscle contraction; test: as above; format: cell-based, male New Zealand White Rabbits; settings: for Emax: read-out: (α)
Experimental: A: Rabbit Saphenous Vein Assay
Compounds of formula (I) prepared in Synthetic Examples 1 to 17 were each tested for their activity as agonists […] for the "5-HT1 -like" receptor mediating smooth muscle contraction by the following method.
[…]. Cocaine (30 μM) was present in the Krebs' solution throughout the experiment to prevent the uptake of amines by sympathetic neurones. The Krebs' solution was maintained at 37° C. and continually gassed with 95% oxygen/5% carbon dioxide. Increases in tissue isometric force were measure using Grass FT03C force displacement transducers and recorded on a Gould BD-212 pen recorder.
A force of 1.0 g was applied to each preparation and re-established twice during a subsequent period of 30 minutes.
Agonist activity was assessed by […] additions of the test compound, its concentration being increased in 0.5 log10 unit increments until further additions caused no further change in tissue force. In each experiment, the activity of the test compound was compared to the activity of 5-HT.

"5-HT1 -like" receptor = molecular target: T2, "5-HT1 -like" receptor (Bos taurus, UniProt F1MGM3); test: Calf Caudate Assay (competition binding with [3H]-5HT, calf caudate nucleus membranes); settings: 3.5 nM [3H]-5HT with 15 μM mesulergine and 15 μM 8-OH-DPAT, text says pIC50 converted by Cheng-Prusoff
T2 construct: Membranes were prepared from homogenates of calf caudate nucleus; from tissue; host or cells: calf caudate nucleus membranes

[3] = agonism, rabbit saphenous vein rings, 37° C., pH 7.4, compared to 5-HT, read-out: pA50 (converted)
[4] = value in parentheses after pA50 in Table 1, rabbit saphenous vein, compared to 5-HT

T1 sequence (P49144 whole entry): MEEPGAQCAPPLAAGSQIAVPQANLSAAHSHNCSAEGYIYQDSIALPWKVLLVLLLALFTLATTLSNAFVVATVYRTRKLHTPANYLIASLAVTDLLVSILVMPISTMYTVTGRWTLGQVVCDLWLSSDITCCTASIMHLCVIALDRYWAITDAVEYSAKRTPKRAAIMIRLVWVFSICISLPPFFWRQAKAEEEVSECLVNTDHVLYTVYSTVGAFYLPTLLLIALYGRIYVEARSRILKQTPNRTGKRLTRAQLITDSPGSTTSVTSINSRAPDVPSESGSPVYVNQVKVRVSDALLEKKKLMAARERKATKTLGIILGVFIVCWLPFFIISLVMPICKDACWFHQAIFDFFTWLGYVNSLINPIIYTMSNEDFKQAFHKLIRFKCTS
T2 sequence (F1MGM3 1-403): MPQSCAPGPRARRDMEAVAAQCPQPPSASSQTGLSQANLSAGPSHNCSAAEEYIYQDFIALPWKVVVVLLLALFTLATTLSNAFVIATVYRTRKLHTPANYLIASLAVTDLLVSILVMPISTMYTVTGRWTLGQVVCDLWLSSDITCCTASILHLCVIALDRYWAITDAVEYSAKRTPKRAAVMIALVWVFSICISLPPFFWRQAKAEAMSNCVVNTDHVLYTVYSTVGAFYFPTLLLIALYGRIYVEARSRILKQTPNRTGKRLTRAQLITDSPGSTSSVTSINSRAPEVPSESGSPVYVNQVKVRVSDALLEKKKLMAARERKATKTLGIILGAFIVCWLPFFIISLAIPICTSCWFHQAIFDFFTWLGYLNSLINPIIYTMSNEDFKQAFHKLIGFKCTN

4-[3-(trans-3dimethylaminocyclobut-1-ylmethyl)-1H-indol-5-ylmethyl]-(4S)oxazolidin-2-one [Example 19]
pKb [1]: 5.73

CN(C)[C@H]1C[C@H](c2c[nH]c3ccc(CC4CNC(=O)O4)cc32)C1 (single isomer, unassigned; (+)) [Example 21, (+)-5-[3-trans-3-dimethylaminocyclobutyl-1H-indol-5-lmethyl]oxazolidin-2-one]
EC50 [2, 3]: 3630 nM
Emax [2, 4]: 16%

N[C@H]1C[C@@H](c2c[nH]c3ccc(C[C@H]4COC(=O)N4)cc32)C1 [Example 1 (cis), 4-[3-(cis-3-aminocyclobutyl)-5-indolymethyl]-(4S)-oxazolidin-2-one acetate]
EC50 [2, 3]: 1580 nM
Emax ([2]; rabbit): 76%

N[C@H]1C[C@H](c2c[nH]c3ccc(C[C@H]4COC(=O)N4)cc32)C1 [Example 1 (trans), 4-[3-(trans-3-aminocyclobutyl)-5-indolylmethyl)-(4S)-oxazolidin-2-one acetate]
EC50 [2]: 380 nM
Emax ([2]; rabbit): 78%

N[C@H]1C[C@H](c2c[nH]c3ccc(C[C@H]4COC(=O)N4)cc32)C1 [Example 1, 4-[3-(trans-3-aminocyclobutyl)-5-indolylmethyl)-(4S)-oxazolidin-2-one]
Activity P[A50 ] ("5-HT1 -like" receptor): 7.8

CN(C)[C@H]1C[C@H](c2c[nH]c3ccc(CCN4C(=O)CNC4=O)cc32)C1 [Example 3]
Kb [1]: 1910 nM

CN(C)[C@H]1C[C@H](c2c[nH]c3ccc(C[C@H]4COC(=O)N4)cc32)C1 [Example 4, 4-[3-(trans-3-dimethylaminocyclobutyl)-1H-indol-5-ylmethyl]-(4S)oxazolidin-2-one]
EC50 [2, 3]: 1910 nM
Emax [2, 4]: 9%

CN(C)[C@H]1C[C@H](c2c[nH]c3ccc(CCN4C(=O)NC(C)(C)C4=O)cc32)C1 [Example 5]
Kb [1]: 891 nM

CC1(C)NC(=O)N(CCc2ccc3[nH]cc([C@H]4C[C@H](N)C4)c3c2)C1=O [Example 6, 3-{2-[3-(trans-3-aminocyclobutyl)-1H-indol-5-yl]ethyl}-5,5-dimethylimidazolidin-2,4-dione]
Kb [1]: 2690 nM

CN(C)[C@H]1C[C@H](c2c[nH]c3ccc(CCN4C(=O)c5ccccc5C4=O)cc32)C1 [Example 7]
Kb [1]: 170 nM

CN(C)[C@H]1C[C@H](c2c[nH]c3ccc(CCN4C(=O)CC5(CCCCC5)CC4=O)cc32)C1 [Example 8, 3-{2-[3-(trans-3-dimethylaminocyclobutyl)-1H-indol-5-yl]ethyl}-3-azaspiro[5,5]undecane-2,4-dione]
pKb [1]: 7.18

CN(C)[C@H]1C[C@H](c2c[nH]c3ccc(CN4C(=O)CNC4=O)cc32)C1 [Example 9, 3-[3-(trans-3-dimethylaminocyclobutyl)-1H-indol-5-ylmethyl]imidazolidin-2,4-dione]
Kb [1]: 9330 nM

CNS(=O)(=O)Cc1ccc2[nH]cc([C@H]3C[C@H](N(C)C)C3)c2c1 [Example 10, N-methyl-[3-(trans-3-dimethylaminocyclobutyl)-1H-indol-5-yl]methanesulphonamide]
Kb [2]: 5620 nM

CN(C)[C@H]1C[C@H](c2c[nH]c3ccc(C[C@@H]4COC(=O)N4)cc32)C1 [Example 11, 4-[3-(trans-3-dimethylaminocyclobutyl)-1H-indol-5-ylmethyl]-(4R)oxazolidin-2-one]
Kb [1]: 11200 nM

CN(C)[C@H]1C[C@H](c2c[nH]c3ccc(CN4C(=O)NC(C)(C)C4=O)cc32)C1 [Example 12, 5,5-dimethyl-3-[3-(trans-3-dimethylaminocyclobutyl)-1H-indol-5-ylmethyl]imidazolidin-2,4-dione]
Kb [1]: 589 nM

CN1C(=O)OC[C@H]1Cc1ccc2[nH]cc([C@H]3C[C@H](N(C)C)C3)c2c1 [Example 13, 4-[3-(trans-3-dimethylaminocyclobutyl)-1H-indol-5-ylmethyl]-3-methyl(4R)oxazolidin-2-one]
EC50 [2, 3]: 14100 nM
Emax [2, 4]: 38%

CN(C)[C@H]1C[C@H](c2c[nH]c3ccc(C(N)=O)cc32)C1 [Example 14, 5-carboxamido-3-(trans-3-dimethylaminocyclobutyl)-1H-indole]
EC50 [2]: 562 nM
Emax ([2]; rabbit): 52%

CN(C)[C@H]1C[C@@H](c2c[nH]c3ccc(C[C@H]4COC(=O)N4)cc32)C1 [Example 15]
EC50 [2, 3]: 7080 nM
Emax [2, 4]: 29%

N[C@H]1C[C@H](c2c[nH]c3ccc(Oc4ccccc4)cc32)C1 [Example 16, 5-phenoxy-3-(trans-3-aminocyclobutyl)-1H-indole]
Kb [2]: > 316 nM

CN(C)[C@H]1C[C@H](c2c[nH]c3ccc(Oc4ccccc4)cc32)C1 [Example 17, 5-phenoxy-3-(trans-3-dimethylaminocyclobutyl)-1H-indole]
Kb [2]: 240 nM

Cc1noc(-c2ccc3[nH]cc([C@H]4C[C@H](N(C)C)C4)c3c2)n1 [Example 18, 3-methyl-5-[3-(trans-3-dimethylaminocyclobutyl)indol-5-yl]-1,2,4-oxadiazole]
Kb [2]: 955 nM

CN[C@H]1C[C@H](c2c[nH]c3ccc(C[C@H]4COC(=O)N4)cc32)C1 [Example 22, 4-[3-(trans-3-methylaminocyclobutyl)-1H-indol-5-ylmethyl]-(4S) oxazolidin-2-one]
EC50 [2, 3]: 708 nM
Emax [2, 4]: 72%

CN(C)[C@H]1C[C@H](c2c[nH]c3ccc(C(=O)NCc4ccccc4)cc32)C1 [Example 23]
Kb [1]: 1260 nM

CN(C)[C@H]1C[C@H](c2c[nH]c3ccc(CCN4C(=O)c5ccccc5C4=O)cc32)C1 [Example 24, 2-{2-[3-(trans-3-dimethylaminocyclobutyl)-1H-indol-5-yl]ethyl} phthalamide]
EC50 [2, 3]: 6170 nM
Emax [2, 4]: 48%

CN(C)[C@H]1C[C@H](c2c[nH]c3ccc(CC(N)=O)cc32)C1 [Example 25, 3-[trans-3-dimethylaminocyclobutyl]-1H-indol-5-yl acetamide]
Kb [2]: 16600 nM

CN(C)[C@H]1C[C@H](c2c[nH]c3ccc(CC(=O)NCc4ccccc4)cc32)C1 [Example 26, N-benzyl-3-[trans-3-dimethylaminocyclobutyl]-1H-indol-5-yl acetamide]
Kb [1]: 3890 nM

Cc1noc(Cc2ccc3[nH]cc([C@H]4C[C@H](N(C)C)C4)c3c2)n1 [Example 27, 3-methyl-5-[3-(trans-3-dimethylaminocyclobutyl)-1H-indol-5-ylmethyl] 1,2,4-oxadiazole]
Kb [1]: 759000 nM

Cc1nc(Cc2ccc3[nH]cc([C@H]4C[C@H](N(C)C)C4)c3c2)n[nH]1 [Example 28, 3-methyl-5-[3-(trans-3-dimethylaminocyclobutyl)-1H-indol-5-ylmethl]1,2,4-triazole]
Kb [1]: 6610 nM
